Measurements taken from ChEMBL document CHEMBL1141422, “Isolation and structures of erylosides from the Caribbean sponge Erylus formosus” (J Nat Prod, 2007).
Active and inactive are the calls of the source. No cut-off for these calls is given here.

Assays:
[1] = Activation of calcium influx into mouse splenocytes at 100 ug/ml relative to control; assay type: functional, cell-based; details: Splenocyte
Ehrlich = assay: Induction of apoptosis in mouse Ehrlich carcinoma cells at 100 ug/ml; assay type: functional, cell-based

Row | Structure (SMILES) | Activity [1] | Activity (Ehrlich)
1 | CC(C)=CCC[C@@H](C)[C@H]1CC[C@@]2(C(=O)O)C3=C(CC[C@]12C)[C@@]1(C)CC[C@H](O[C@@H]2OC[C@H](O)[C@H](O)[C@H]2O[C@@H]2O[C@H](CO)[C@H](O)[C@H](O)[C@H]2O)C(C)(C)[C@@H]1CC3 | 130% | 
2 | C=C(C)[C@@H](O)CC[C@@H](C)[C@H]1CC[C@@]2(C(=O)O)C3=C(CC[C@]12C)[C@@]1(C)CC[C@H](O[C@@H]2OC[C@H](O)[C@H](O)[C@H]2O[C@@H]2O[C@H](CO)[C@H](O)[C@H](O)[C@H]2O)C(C)(C)[C@@H]1CC3 |  | Active
3 | C=C(CC[C@@H](C)[C@H]1CC[C@@]2(C(=O)O)C3=C(CC[C@]12C)[C@@]1(C)CC[C@H](O[C@@H]2OC[C@H](O)[C@H](O)[C@H]2O[C@@H]2O[C@H](CO)[C@H](O)[C@H](O)[C@H]2O)C(C)(C)[C@@H]1CC3)C(C)C | 130% | 
